Entries after “also recorded” stand apart in the source; their conditions may differ.

The Ki is a measure of affinity in units of concentration, obtained from inhibition or displacement.

In one assay the target is T1, Ty1 PR-His6 (Saccharomyces cerevisiae, UniProt Q07793).
T1 construct: made in house; host or cells: E. coli BL21(DE3), pET11a Gag-PR-His6 (gift of J.F. Lawler); soluble fraction, Ni-chelate chromatography, autoprocessed
T1 sequence (Q07793 402-582 limits assumed): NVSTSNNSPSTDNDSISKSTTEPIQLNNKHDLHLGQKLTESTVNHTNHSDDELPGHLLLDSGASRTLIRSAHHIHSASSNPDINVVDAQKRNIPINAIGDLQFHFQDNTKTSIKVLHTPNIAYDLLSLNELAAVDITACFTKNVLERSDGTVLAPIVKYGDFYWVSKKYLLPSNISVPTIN
The assay can be described thus: Inhibition study of Ty1 PR-His6. In kind it is biochemical. The note with it: Ty1 PR-His6 (400–1600 nM), VPTIN*NVHTS 0.44 mM, inhibitor ≥100 nM final, DMSO, peptide buffer A, 2 h at 30°C. Here is the method:
Ty1 PR-His6 activity was measured in the presence of various HIV-1 protease inhibitors. […] To study effect of inhibitors on proteolytic activity, reaction mixtures contained 5 μl purified Ty1 PR-His6 (400–1600 nM), 10 μl peptide buffer A, 4.8 μl oligopeptide substrate (VPTIN*NVHTS, 0.44 mM), and 0.2 μl inhibitor. For screening, inhibitors were dissolved in DMSO to have ≥100 nM final concentration. DMSO solution containing no inhibitor was used as control. Reaction mixtures were incubated for 2 h at 30°C.

The target of assay [1] is Copia transposon protease. The note with it: ref [17]; cited from earlier work. The text has this: (§1) Despite the fact that out of the tested inhibitors only acet ...
Another assay deals with XMRV PR. The note with it: ref [29]; cited from earlier work.
Excerpt: as §1

Turning to pepstatin A, the “inhibition of proteolytic activity (in words)” value against Ty1 PR-His6 was “no inhibitory potential; also recorded: unable for the inhibition”. Besides, the Ki in assay [1] is 0.015 µM. In the assay on XMRV PR, the “inhibition (in words)” value is listed as “weak inhibitors”.

The values are drawn from article PMC6952103, “Biochemical characterization of Ty1 retrotransposon protease” (PLoS ONE, 2020).
